Patent publication US20250154525A1, “PLANT VIRUS MOVEMENT PROTEINS AND METHODS OF USING SAME” (Molecular Transfer, Inc., priority 2016, published 2025)

Assays:
HeLa Cells [1] = assay: GFP plasmid transfection with DOTMA/DOPE plus surface ligand peptide, fluorescent plate reader (Example 1); assay type: cell-based; conditions: DOTMA/DOPE + peptide linked to R12 or K16; EF1Alpha eGFP plasmid; 42 hours
Experimental: (§1) Cells were plated to so that on the day of transfection the cells were 70% confluent in 96 well tissue culture plates. A DOMTA/DOPE Lipid solution (1:1 molar ratio) at 2 mg/mL in water were mixed with an equal volume cell surface ligand containing adhesion peptide, the plant virus movement protein, or peptide derived therefrom, that had the nucleic acid binding moiety RRRRRRRRRRRR (SEQ ID NO:109) or KKKKKKKKKKKKKKKK (SEQ ID NO: 102) covalently linked to the N-terminus, or C-terminus of each peptide during peptide synthesis. Peptides were at 2 mg/mL in water. The DOTMA/DOPE and the solution containing the cell surface ligand containing adhesion peptide, the plant virus movement protein, or peptide derived therefrom, surface ligand peptide the was diluted 1 to 1 (v/v) in water. DOMTA/DOPE/PEPTIDE solutions were added to 0.1 mL of a plasmid DNA solution (EF1Alpha eGFP plasmid) at 10 μg/mL in OptiMEM.
(§2) All solutions were at room temperature. A volume of 0.2 mL of a 10 μg/mL solution of DNA was aliquoted into each well of a non-tissue cultured treated plate. 1-12 μL of transfection reagents were added to DNA solutions respectively. The transfection reagent and DNA solution was mixed by pipetting up and down twice. Transfection complexes were formed for 10 minutes. After 10 minutes, 0.01 or 0.02 mL of the transfection complex was added to cells. HuVEC, HeLa, human adult keratinocytes, human primary adult fibroblast, and A549 cells all respectively received 0.01 mL of the transfection complex. Human skeletal muscle cells, mouse C2C12 cells, and Jurkat, cells received 0.02 mL of the transfection complex. Cells were incubated for 42 hours at 37° C. at 5% CO2. Plates were read on a fluorescent plate reader. Cells were also examined visually under a microscope to assess the extent of transfection (in terms of the percent of cells transfected) with a fluorescent microscope. Other modes of analysis, for example quantification with B-galactocidase or luciferase reports plasmids can also be used.
(§3) Surface ligand that caused increase expression of GFP over the lipid DOTMA with no surface ligand were considered to enhance transfection or had higher % cells transfected were considered to enhance transfection. Peptides that gave greater than 2-fold enhancement are noted in bold and could be further optimized by adding different transfection enhancers or could be used with different cationic lipids or polymers.
(§4) Tables 2-7, below, provide the results of the transfection enhancements with the various cell types, while Table 8 lists the peptides that were determined by visual inspection to enhance the transfection of the denoted cell lines over the lipid DOTMA.

HuVec Cells = assay: as above; assay type: cell-based; conditions: DOTMA/DOPE + peptide linked to R12 or K16; EF1Alpha eGFP plasmid; 42 hours
Experimental: as §1, §2, §3, §4

Human Fibroblast Cells = assay: as above; assay type: cell-based; conditions: DOTMA/DOPE + peptide linked to R12 or K16; EF1Alpha eGFP plasmid; 42 hours
Experimental: as §1, §2, §3, §4

Jurkat Cells = assay: as above; assay type: cell-based; conditions: DOTMA/DOPE + peptide linked to R12 or K16; EF1Alpha eGFP plasmid; 42 hours
Experimental: as §1, §2, §3, §4

NL-1 iPS Cells = assay: as above; assay type: cell-based; conditions: DOTMA/DOPE + peptide linked to R12 or K16; EF1Alpha eGFP plasmid; 42 hours
Experimental: as §1, §2, §3, §4

C2C12 Cells = assay: as above; assay type: cell-based, mouse; conditions: DOTMA/DOPE + peptide linked to R12 or K16; EF1Alpha eGFP plasmid; 42 hours
Experimental: as §1, §2, §3, §4

HeLa Cells [2] = assay: GFP transfection with DOTMA/SEQ ID NO: 72 (fusogenic peptide)/peptide compared with Lipofectamine 2000; assay type: cell-based
Experimental: as §1, §2
The fusogenic peptide was added to the DOMTA/peptide formulation to achieve a final concentration of 0.1 mg/mL to see if transfection reagents were further enhanced by the addition of a fusogenic peptide and could provide higher transfection efficiency into HeLa cells and expression than the commercially available Lipofectamine 2000.

some examined cell types = assay: Summary of Example 1: transfection expression and % cells transfected over the no peptide control; assay type: cell-based; conditions: on some examined cell types
Experimental: as §1, §2, §3

[3] = 0.1 μL of DOTMA/SEQ ID NO: 72/Peptide in well of a 96 well plate
[4] = 0.2 μL of DOTMA/SEQ ID NO: 72/Peptide in well of a 96 well plate
[5] = 0.3 μL of DOTMA/SEQ ID NO: 72/Peptide in well of a 96 well plate
[6] = 0.4 μL of DOTMA/SEQ ID NO: 72/Peptide in well of a 96 well plate

Substance | Relative Fluorescence of Transfection of HeLa Cells (RF) (HeLa Cells [1]) | Relative Fluorescence of Transfection of HuVec Cells (RF) (HuVec Cells) | Relative Fluorescence of Transfection of Human Fibroblast Cells (RF) (Human Fibroblast Cells) | Relative Fluorescence of Transfection of Jurkat Cells (RF) (Jurkat Cells) | Relative Fluorescence of Transfection of NL-1 iPS Cells (RF) (NL-1 iPS Cells) | Relative Fluorescence of Transfection of C2C12 Cells (RF) (C2C12 Cells) | Relative Fluorescence DOTMA/SEQ ID NO: 72/Peptide, HeLa Cells (RF) (HeLa Cells [2]; [3]) | Relative Fluorescence DOTMA/SEQ ID NO: 72/Peptide, HeLa Cells (RF) (HeLa Cells [2]; [4]) | Relative Fluorescence DOTMA/SEQ ID NO: 72/Peptide, HeLa Cells (RF) (HeLa Cells [2]; [5]) | Relative Fluorescence DOTMA/SEQ ID NO: 72/Peptide, HeLa Cells (RF) (HeLa Cells [2]; [6]) | transfection expression and % cells transfected over the no peptide control (some examined cell types)
218 (SPPRRARVT) [compound 218] | 11179 | 14827 | 11230 | 21451 | 17049 | 3706 | 12686 | 13103 | 10151 | 10081 | increased transfection expression and the % cells transfected
358 (GHRGPTGRPGKRGKQGQKGDS) [compound 358] | 15132 | 25398 | 5665 | 18820 | 21956 | 2271 | 12331 | 12683 | 13686 | 11097 | increased transfection expression and the % cells transfected
503 (TAGSCLRKFSTMRRRRRRRRRRRR) [compound 503] | 25368 | 12123 | 13085 | 9411 | 19014 | 3973 | 12827 | 20006 | 17101 | 16206 | increased transfection expression and the % cells transfected
450 (TAGSCLRKFSCL) [compound 450] | 21045 | 20911 | 6996 | 8779 | 29856 | 3795 | 11962 | 17346 | 12553 | 10241 | increased transfection expression and the % cells transfected
230 (WQPPRARI) [compound 230] | 8944 | 9067 | 11771 | 10229 | 14524 | 2606 |  |  |  |  | increased transfection expression and the % cells transfected
205 (AASIKVAVSADR) [compound 205] | 26368 | 8309 | 8550 | 2298 | 13140 | 2102 |  |  |  |  | increased transfection expression and the % cells transfected
